# Assay results reported in ChEMBL document CHEMBL1201862, “PubChem BioAssay data set” (2004).
#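 In this assay, cells in 96-well plates receive the compound at five concentrations for 48 hours. Endpoints are linearly interpolated between the surrounding concentrations. Here, GI50 denotes the concentration required for 50% inhibition of growth.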 Active and inactive are the calls of the source. Rule as the data show it: active = GI50 up to about 1.1 µM and inactive = higher.
# Tests used:
# Assay in all cases: NCI anticancer screen, dose series, 48 h
# 786-0 = test system: 786-0
# A498 = test system: A498
# A549 = test system: A549
# ACHN = test system: ACHN
# BT-549 = test system: BT-549
# CAKI-1 = test system: CAKI-1
# CCRF-CEM = test system: CCRF-CEM
# COLO 205 = test system: COLO 205
# DU-145 = test system: DU-145
# EKVX = test system: EKVX
# HCT-116 = test system: HCT-116
# HCT-15 = test system: HCT-15
# HOP-62 = test system: HOP-62
# HT-29 = test system: HT-29
# Hs-578T = test system: Hs-578T
# IGROV-1 = test system: IGROV-1
# K562 = test system: K562
# KM12 = test system: KM12
# LOX IMVI = test system: LOX IMVI
# M14 = test system: M14
# MCF7 = test system: MCF7
# MDA-MB-435 = test system: MDA-MB-435
# MDA-N = test system: MDA-N
# MOLT-4 = test system: MOLT-4
# Malme-3M = test system: Malme-3M
# NCI-H226 = test system: NCI-H226
# NCI-H23 = test system: NCI-H23
# NCI-H460 = test system: NCI-H460
# NCI-H522 = test system: NCI-H522
# NCI/ADR-RES = test system: NCI/ADR-RES
# OVCAR-3 = test system: OVCAR-3
# OVCAR-4 = test system: OVCAR-4
# OVCAR-5 = test system: OVCAR-5
# OVCAR-8 = test system: OVCAR-8
# PC-3 = test system: PC-3
# RPMI-8226 = test system: RPMI-8226
# RXF 393 = test system: RXF 393
# SF-268 = test system: SF-268
# SF-295 = test system: SF-295
# SF-539 = test system: SF-539
# SK-MEL-28 = test system: SK-MEL-28
# SK-MEL-2 = test system: SK-MEL-2
# SK-MEL-5 = test system: SK-MEL-5
# SK-OV-3 = test system: SK-OV-3
# SN12C = test system: SN12C
# SNB-19 = test system: SNB-19
# SNB-75 = test system: SNB-75
# SW-620 = test system: SW-620
# T47D = test system: T47D
# TK-10 = test system: TK-10
# U-251 = test system: U-251
# UACC-257 = test system: UACC-257
# UACC-62 = test system: UACC-62
# UO-31 = test system: UO-31
# HCC 2998 = test system: HCC 2998
# HL-60 = test system: HL-60
# HOP-92 = test system: HOP-92
# SR = test system: SR
# MDA-MB-231 = test system: MDA-MB-231
structure (smiles),measurement,setting,value
Cc1n[n+](Cc2ccccc2)c2sc(N)nn12,GI50,786-0,> 100 µM (inactive)
same,GI50,A498,> 100 µM (inactive)
same,GI50,A549,> 100 µM (inactive)
same,GI50,ACHN,> 100 µM (inactive)
same,GI50,BT-549,38.4 µM (inactive)
same,GI50,CAKI-1,> 100 µM (inactive)
same,GI50,CCRF-CEM,32 µM (inactive)
same,GI50,COLO 205,> 100 µM (inactive)
same,GI50,DU-145,> 100 µM (inactive)
same,GI50,EKVX,> 100 µM (inactive)
same,GI50,HCT-116,76.4 µM (inactive)
same,GI50,HCT-15,> 100 µM
same,GI50,HOP-62,> 100 µM (inactive)
same,GI50,HT-29,59 µM (inactive)
same,GI50,Hs-578T,> 100 µM (inactive)
same,GI50,IGROV-1,> 100 µM (inactive)
same,GI50,K562,76.7 µM (inactive)
same,GI50,KM12,> 100 µM (inactive)
same,GI50,LOX IMVI,> 100 µM (inactive)
same,GI50,M14,> 100 µM (inactive)
same,GI50,MCF7,> 100 µM (inactive)
same,GI50,MDA-MB-435,> 100 µM (inactive)
same,GI50,MDA-N,> 100 µM (inactive)
same,GI50,MOLT-4,58.9 µM (inactive)
same,GI50,Malme-3M,> 100 µM (inactive)
same,GI50,NCI-H226,74 µM (inactive)
same,GI50,NCI-H23,> 100 µM (inactive)
same,GI50,NCI-H460,> 10 µM (inactive)
same,GI50,NCI-H522,30 µM (inactive)
same,GI50,NCI/ADR-RES,> 100 µM (inactive)
same,GI50,OVCAR-3,> 100 µM (inactive)
same,GI50,OVCAR-4,> 100 µM (inactive)
same,GI50,OVCAR-5,> 100 µM (inactive)
same,GI50,OVCAR-8,> 100 µM (inactive)
same,GI50,PC-3,> 100 µM (inactive)
same,GI50,RPMI-8226,> 100 µM (inactive)
same,GI50,RXF 393,> 100 µM (inactive)
same,GI50,SF-268,35.3 µM (inactive)
same,GI50,SF-295,> 100 µM (inactive)
same,GI50,SF-539,> 100 µM (inactive)
same,GI50,SK-MEL-28,> 100 µM (inactive)
same,GI50,SK-MEL-2,> 100 µM (inactive)
same,GI50,SK-MEL-5,39.4 µM (inactive)
same,GI50,SK-OV-3,85.9 µM (inactive)
same,GI50,SN12C,> 100 µM (inactive)
same,GI50,SNB-19,> 100 µM (inactive)
same,GI50,SNB-75,> 100 µM (inactive)
same,GI50,SW-620,64.6 µM (inactive)
same,GI50,T47D,> 100 µM (inactive)
same,GI50,TK-10,> 100 µM (inactive)
same,GI50,U-251,> 100 µM (inactive)
same,GI50,UACC-257,> 100 µM (inactive)
same,GI50,UACC-62,10.2 µM (inactive)
same,GI50,UO-31,> 100 µM (inactive)
CNc1ncnc2c1ncn2C1C=CC(COS(N)(=O)=O)C1 (centres undefined),GI50,786-0,> 100 µM (inactive)
same,GI50,A498,> 100 µM (inactive)
same,GI50,A549,> 100 µM (inactive)
same,GI50,ACHN,> 100 µM (inactive)
same,GI50,BT-549,> 100 µM (inactive)
same,GI50,CAKI-1,> 100 µM (inactive)
same,GI50,CCRF-CEM,> 100 µM (inactive)
same,GI50,COLO 205,> 100 µM (inactive)
same,GI50,DU-145,> 100 µM (inactive)
same,GI50,EKVX,> 100 µM (inactive)
same,GI50,HCC 2998,> 100 µM (inactive)
same,GI50,HCT-116,> 100 µM (inactive)
same,GI50,HCT-15,> 100 µM
same,GI50,HL-60,> 100 µM (inactive)
same,GI50,HOP-62,> 100 µM (inactive)
same,GI50,HOP-92,> 100 µM (inactive)
same,GI50,HT-29,> 100 µM (inactive)
same,GI50,Hs-578T,> 100 µM (inactive)
same,GI50,IGROV-1,> 100 µM (inactive)
same,GI50,K562,> 100 µM (inactive)
same,GI50,KM12,> 100 µM (inactive)
same,GI50,LOX IMVI,> 100 µM (inactive)
same,GI50,M14,> 100 µM (inactive)
same,GI50,MCF7,> 100 µM (inactive)
same,GI50,MDA-MB-435,> 100 µM (inactive)
same,GI50,MDA-N,> 100 µM (inactive)
same,GI50,MOLT-4,> 100 µM (inactive)
same,GI50,Malme-3M,> 100 µM (inactive)
same,GI50,NCI-H23,> 100 µM (inactive)
same,GI50,NCI-H460,> 100 µM (inactive)
same,GI50,NCI-H522,> 100 µM (inactive)
same,GI50,NCI/ADR-RES,> 100 µM (inactive)
same,GI50,OVCAR-3,> 100 µM (inactive)
same,GI50,OVCAR-4,> 100 µM (inactive)
same,GI50,OVCAR-8,> 100 µM (inactive)
same,GI50,PC-3,> 100 µM (inactive)
same,GI50,RPMI-8226,> 100 µM (inactive)
same,GI50,RXF 393,> 100 µM (inactive)
same,GI50,SF-268,> 100 µM (inactive)
same,GI50,SF-295,> 100 µM (inactive)
same,GI50,SF-539,> 100 µM (inactive)
same,GI50,SK-MEL-28,> 100 µM (inactive)
same,GI50,SK-MEL-2,> 100 µM (inactive)
same,GI50,SK-MEL-5,> 100 µM (inactive)
same,GI50,SK-OV-3,> 100 µM (inactive)
same,GI50,SN12C,> 100 µM (inactive)
same,GI50,SNB-19,> 100 µM (inactive)
same,GI50,SNB-75,> 100 µM (inactive)
same,GI50,SR,> 100 µM (inactive)
same,GI50,SW-620,> 100 µM (inactive)
same,GI50,T47D,> 100 µM (inactive)
same,GI50,U-251,> 100 µM (inactive)
same,GI50,UACC-257,> 100 µM (inactive)
same,GI50,UACC-62,> 100 µM (inactive)
same,GI50,UO-31,> 100 µM (inactive)
CC1(C)[C@H]2CC[C@]1(C)[C@H](OC(=O)NNC(=O)O[C@@H]1C[C@@H]3CC[C@@]1(C)C3(C)C)C2,GI50,786-0,17.8 µM (inactive)
same,GI50,A498,16.3 µM (inactive)
same,GI50,A549,10.4 µM (inactive)
same,GI50,ACHN,18.7 µM (inactive)
same,GI50,BT-549,19.7 µM (inactive)
same,GI50,CAKI-1,15.5 µM (inactive)
same,GI50,CCRF-CEM,20.3 µM (inactive)
same,GI50,COLO 205,12.3 µM (inactive)
same,GI50,DU-145,16.3 µM (inactive)
same,GI50,EKVX,12.6 µM (inactive)
same,GI50,HCC 2998,14.1 µM (inactive)
same,GI50,HCT-116,10.9 µM (inactive)
same,GI50,HCT-15,12.5 µM
same,GI50,HL-60,7.01 µM (inactive)
same,GI50,HOP-62,14.9 µM (inactive)
same,GI50,HOP-92,15.1 µM (inactive)
same,GI50,HT-29,5.7 µM (inactive)
same,GI50,Hs-578T,14.2 µM (inactive)
same,GI50,IGROV-1,15.4 µM (inactive)
same,GI50,K562,3.35 µM (inactive)
same,GI50,KM12,15.7 µM (inactive)
same,GI50,LOX IMVI,26.7 µM (inactive)
same,GI50,M14,15.5 µM (inactive)
same,GI50,MCF7,10.9 µM (inactive)
same,GI50,MDA-MB-231,13 µM (inactive)
same,GI50,MDA-MB-435,21.2 µM (inactive)
same,GI50,MDA-N,11.6 µM (inactive)
same,GI50,MOLT-4,7.29 µM (inactive)
same,GI50,Malme-3M,16.1 µM (inactive)
same,GI50,NCI-H226,16.7 µM (inactive)
same,GI50,NCI-H23,14.9 µM (inactive)
same,GI50,NCI-H460,13.7 µM (inactive)
same,GI50,NCI-H522,13 µM (inactive)
same,GI50,OVCAR-3,11.9 µM (inactive)
same,GI50,OVCAR-4,11.4 µM (inactive)
same,GI50,OVCAR-5,17.5 µM (inactive)
same,GI50,RPMI-8226,10.5 µM (inactive)
same,GI50,RXF 393,10.6 µM (inactive)
same,GI50,SF-268,15.6 µM (inactive)
same,GI50,SF-295,13.8 µM (inactive)
same,GI50,SF-539,14.4 µM (inactive)
same,GI50,SK-MEL-28,24.3 µM (inactive)
same,GI50,SK-MEL-2,16.8 µM (inactive)
same,GI50,SK-MEL-5,12.6 µM (inactive)
same,GI50,SK-OV-3,14.3 µM (inactive)
same,GI50,SN12C,12.2 µM (inactive)
same,GI50,SNB-19,19.5 µM (inactive)
same,GI50,SNB-75,13.6 µM (inactive)
same,GI50,SW-620,19.4 µM (inactive)
same,GI50,T47D,7.1 µM (inactive)
same,GI50,TK-10,20.6 µM (inactive)
same,GI50,U-251,16 µM (inactive)
same,GI50,UACC-257,16.3 µM (inactive)
same,GI50,UACC-62,17.4 µM (inactive)
same,GI50,UO-31,15 µM (inactive)
